Reference: patent publication US10392348B2, “2-oxo-3,4-dihydroquinoline compounds as plant growth regulators” (Syngenta Participations AG, priority 2015, dated 2019)
Read-outs that look alike come from different tables or passages of the source. One block for each compound: values may come before it.

Legend:
[1] = test system: soybean plants (variety S20-G7); assay: Reduced plant water use in soybean (foliar spray, repeated weighing of pots); type: in vivo; settings: vs negative control; for change in vivo at 500 µM / change in vivo at 31.25 µM / change in vivo at 125 µM: Glycine max, foliar; for % WU 0 DAA AM*: 0 DAA a.m.
In short: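 Daytime water use was tracked by weighing pots of 12-day-old soybean after foliar spray of compound formulated as EC plus EXTRAVON 1 g/20 L. Cumulative total (0-2.5 DAA) sums a.m. and p.m. readings; values baseline-adjusted by covariance analysis against formulation-only negative control.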

[2] = 0 h, Table B1, sprayed at 500 μM, 0 DAA a.m. (10:30-12:50), read-out: % WU 0 DAA AM
[3] = 24 h, Table B1, sprayed at 500 μM, 1 DAA a.m. (7:30-12:50), read-out: % WU 1DAA AM
[4] = 24 h, Table B1, sprayed at 500 μM, 1 DAA p.m. (14:00-19:50), read-out: % WU 1DAA PM
[5] = 24 h, Table B2, rate 31.25 uM, 1 DAA a.m., read-out: % WU 1DAA AM
[6] = 24 h, Table B2, rate 31.25 uM, 1 DAA p.m., read-out: % WU 1DAA PM
[7] = 24 h, Table B2, rate 125 uM, 1 DAA a.m., read-out: % WU 1DAA AM
[8] = 24 h, Table B2, rate 125 uM, 1 DAA p.m., read-out: % WU 1DAA PM
[9] = 24 h, Table B2, rate 500 uM, 1 DAA a.m., read-out: % WU 1DAA AM
[10] = 24 h, Table B2, rate 500 uM, 1 DAA p.m., read-out: % WU 1DAA PM
[11] = 48 h, Table B1, sprayed at 500 μM, 2 DAA a.m. (07:30-12:50), read-out: % WU 2 DAA AM
[12] = 48 h, Table B1, sprayed at 500 μM, 2 DAA p.m. (14:00-19:50), read-out: % WU 2 DAA PM
[13] = 48 h, Table B2, rate 31.25 uM, 2 DAA a.m., read-out: % WU 2 DAA AM
[14] = 48 h, Table B2, rate 31.25 uM, 2 DAA p.m., read-out: % WU 2 DAA PM
[15] = 48 h, Table B2, rate 125 uM, 2 DAA a.m., read-out: % WU 2 DAA AM
[16] = 48 h, Table B2, rate 125 uM, 2 DAA p.m., read-out: % WU 2 DAA PM
[17] = 48 h, Table B2, rate 500 uM, 2 DAA a.m., read-out: % WU 2 DAA AM
[18] = 48 h, Table B2, rate 500 uM, 2 DAA p.m., read-out: % WU 2 DAA PM
[19] = 60 h, Table B1, sprayed at 500 μM, cumulative total WU (0-2.5 DAA), read-out: % WU Total 0 to 2.5 DAA
[20] = 60 h, Table B2, rate 31.25 uM, cumulative total WU (0-2.5 DAA), read-out: % WU Total 0 to 2.5 DAA
[21] = 60 h, Table B2, rate 125 uM, cumulative total WU (0-2.5 DAA), read-out: % WU Total 0 to 2.5 DAA
[22] = 60 h, Table B2, rate 500 uM, cumulative total WU (0-2.5 DAA), read-out: % WU Total 0 to 2.5 DAA

SMILES: CCN1C(=O)CCc2cc(CNS(=O)(=O)c3ccccc3)ccc21 [Compound 2.001, N-[(1-ethyl-2-oxo-3,4-dihydroquinolin-6-yl)methyl]benzenesulfonamide]
melting point: 114 to 124 °C
change in vivo at 500 µM [1, 2]: -35.3%
change in vivo at 500 µM [1, 3]: -29.1%
change in vivo at 500 µM [1, 4]: -28.1%
change in vivo at 31.25 µM [1, 5]: -1.8%
change in vivo at 31.25 µM [1, 6]: -0.9%
change in vivo at 125 µM [1, 7]: -10.1%
change in vivo at 125 µM [1, 8]: -10.9%
change in vivo at 500 µM [1, 9]: -36.3%
change in vivo at 500 µM [1, 10]: -33.2%
change in vivo at 500 µM [1, 11]: -19.6%
change in vivo at 500 µM [1, 12]: -14.3%
change in vivo at 31.25 µM [1, 13]: -2.7%
change in vivo at 31.25 µM [1, 14]: -1.5%
change in vivo at 125 µM [1, 15]: -11.7%
change in vivo at 125 µM [1, 16]: -10.1%
change in vivo at 500 µM [1, 17]: -24.2%
change in vivo at 500 µM [1, 18]: -19.5%
change in vivo at 500 µM [1, 19]: -25.7%
change in vivo at 31.25 µM [1, 20]: -1.7%
change in vivo at 125 µM [1, 21]: -11.1%
change in vivo at 500 µM [1, 22]: -31.8%
% WU 0 DAA AM* ([1]; Table B2, rate 31.25 uM): −0.7%
% WU 0 DAA AM* ([1]; Table B2, rate 125 uM): −10.4%
% WU 0 DAA AM* ([1]; Table B2, rate 500 uM): −41.2%

SMILES: CCN1C(=O)CCc2cc(CNS(=O)(=O)c3ccccc3F)ccc21 [Compound 2.007, N-[(1-ethyl-2-oxo-3,4-dihydroquinolin-6-yl)methyl]-2-fluoro-benzenesulfonamide]
melting point: 155 to 163 °C
change in vivo at 500 µM [1, 2]: -14.1%
change in vivo at 500 µM [1, 3]: -7.3%
change in vivo at 500 µM [1, 4]: -6.6%
change in vivo at 500 µM [1, 11]: -8.8%
change in vivo at 500 µM [1, 12]: -5.7%
change in vivo at 500 µM [1, 19]: -8.1%

SMILES: CCN1C(=O)CCc2cc(CNS(=O)(=O)c3ccc(F)cc3)ccc21 [Compound 2.009, N-[(1-ethyl-2-oxo-3,4-dihydroquinolin-6-yl)methyl]-4-fluoro-benzenesulfonamide]
melting point: 190 to 191 °C
change in vivo at 500 µM [1, 2]: -5.3%
change in vivo at 500 µM [1, 3]: -2%
change in vivo at 500 µM [1, 4]: -1.2%
change in vivo at 500 µM [1, 11]: -3.1%
change in vivo at 500 µM [1, 12]: -1%
change in vivo at 500 µM [1, 19]: -2.3%

SMILES: CCN1C(=O)CCc2cc(CNS(=O)(=O)c3ccc(OC)cc3)ccc21 [Compound 2.010, N-[(1-ethyl-2-oxo-3,4-dihydroquinolin-6-yl)methyl]-4-methoxy-benzenesulfonamide]
melting point: 147 to 150 °C
change in vivo at 500 µM [1, 2]: -15.2%
change in vivo at 500 µM [1, 3]: -2.6%
change in vivo at 500 µM [1, 4]: -1.7%
change in vivo at 500 µM [1, 11]: -3.6%
change in vivo at 500 µM [1, 12]: -2.4%
change in vivo at 500 µM [1, 19]: -4.3%

SMILES: CCN1C(=O)CCc2cc(CNS(=O)(=O)c3ccc(C)cc3C)ccc21 [Compound 2.014, N-[(1-ethyl-2-oxo-3,4-dihydroquinolin-6-yl)methyl]-2,4-dimethyl-benzenesulfonamide]
melting point: 199 to 200 °C
change in vivo at 500 µM [1, 2]: -2.8%
change in vivo at 500 µM [1, 3]: -0.2%
change in vivo at 500 µM [1, 4]: -0.9%
change in vivo at 500 µM [1, 11]: -0.9%
change in vivo at 500 µM [1, 12]: -1.7%
change in vivo at 500 µM [1, 19]: -1.1%

Now from value to compound, other results behind:

melting point: 159 to 161 °C
SMILES: CCCN1C(=O)CCc2cc(CNS(=O)(=O)c3ccccc3)ccc21 [Compound 3.001, N-[(2-oxo-1-propyl-3,4-dihydroquinolin-6-yl)methyl]benzenesulfonamide]
change in vivo at 500 µM [1, 2]: -15%
change in vivo at 500 µM [1, 3]: -9.9%
change in vivo at 500 µM [1, 4]: -6.7%
change in vivo at 31.25 µM [1, 5]: -6.9%
change in vivo at 31.25 µM [1, 6]: -5.4%
change in vivo at 125 µM [1, 7]: -15.7%
change in vivo at 125 µM [1, 8]: -15.3%
change in vivo at 500 µM [1, 9]: -36.4%
change in vivo at 500 µM [1, 10]: -33.3%
change in vivo at 500 µM [1, 11]: -7.2%
change in vivo at 500 µM [1, 12]: -5.8%
change in vivo at 31.25 µM [1, 13]: -5.8%
change in vivo at 31.25 µM [1, 14]: -2.2%
change in vivo at 125 µM [1, 15]: -9.3%
change in vivo at 125 µM [1, 16]: -6.3%
change in vivo at 500 µM [1, 17]: -21.4%
change in vivo at 500 µM [1, 18]: -15.1%
change in vivo at 500 µM [1, 19]: -8.8%
change in vivo at 31.25 µM [1, 20]: -5.7%
change in vivo at 125 µM [1, 21]: -14.8%
change in vivo at 500 µM [1, 22]: -31.1%
% WU 0 DAA AM* ([1]; Table B2, rate 31.25 uM): −4.4%
% WU 0 DAA AM* ([1]; Table B2, rate 125 uM): −23.7%
% WU 0 DAA AM* ([1]; Table B2, rate 500 uM): −44.6%

melting point: 163 to 165 °C
SMILES: CCCN1C(=O)CCc2cc(CNS(=O)(=O)c3ccccc3C)ccc21 [Compound 3.011, 2-methyl-N-[(2-oxo-1-propyl-3,4-dihydroquinolin-6-yl)methyl]benzenesulfonamide]
change in vivo at 500 µM [1, 2]: -3.6%
change in vivo at 500 µM [1, 3]: -3.6%
change in vivo at 500 µM [1, 4]: -2.3%
change in vivo at 500 µM [1, 11]: -3.6%
change in vivo at 500 µM [1, 12]: -2.4%
change in vivo at 500 µM [1, 19]: -3%

melting point: 153 to 154 °C
SMILES: CCCN1C(=O)CCc2cc(CNS(=O)(=O)c3ccc(C)cc3)ccc21 [Compound 3.012, 4-methyl-N-[(2-oxo-1-propyl-3,4-dihydroquinolin-6-yl)methyl]benzenesulfonamide]
change in vivo at 500 µM [1, 2]: -43.9%
change in vivo at 500 µM [1, 3]: -1.8%
change in vivo at 500 µM [1, 4]: 2.1%
change in vivo at 500 µM [1, 11]: 1.7%
change in vivo at 500 µM [1, 12]: 3%
change in vivo at 500 µM [1, 19]: -5.8%

melting point: 138 to 139 °C
SMILES: CCCN1C(=O)CCc2cc(CNS(=O)(=O)c3ccc(OC(C)C)cc3)ccc21 [Compound 3.016, 4-isopropoxy-N-[(2-oxo-1-propyl-3,4-dihydroquinolin-6-yl)methyl]benzenesulfonamide]
change in vivo at 500 µM [1, 2]: -3.6%
change in vivo at 500 µM [1, 3]: -1.3%
change in vivo at 500 µM [1, 4]: -0.5%
change in vivo at 500 µM [1, 11]: -1.1%
change in vivo at 500 µM [1, 12]: 0%
change in vivo at 500 µM [1, 19]: -1.2%

melting point: 151 to 153 °C
SMILES: CCCN1C(=O)CCc2cc(CNS(=O)(=O)c3cccs3)ccc21 [Compound 3.072, N-[(2-oxo-1-propyl-3,4-dihydroquinolin-6-yl)methyl]thiophene-2-sulfonamide]
change in vivo at 500 µM [1, 2]: -39.4%
change in vivo at 500 µM [1, 3]: -45.9%
change in vivo at 500 µM [1, 4]: -40.9%
change in vivo at 500 µM [1, 11]: -39.8%
change in vivo at 500 µM [1, 12]: -32.2%
change in vivo at 500 µM [1, 19]: -40.1%

melting point: 144 to 147 °C
SMILES: CCCN1C(=O)CCc2cc(CNS(=O)(=O)c3ccc(Cl)s3)ccc21 [Compound 3.073, 5-chloro-N-[(2-oxo-1-propyl-3,4-dihydroquinolin-6-yl)methyl]thiophene-2-sulfonamide]
change in vivo at 500 µM [1, 2]: -44.6%
change in vivo at 500 µM [1, 3]: -54.9%
change in vivo at 500 µM [1, 4]: -52.1%
change in vivo at 500 µM [1, 11]: -53.3%
change in vivo at 500 µM [1, 12]: -48.7%
change in vivo at 500 µM [1, 19]: -51%

melting point: 176 to 179 °C
SMILES: CCCN1C(=O)CCc2cc(CNS(=O)(=O)c3cccc4ccccc34)ccc21 [Compound 3.074, N-[(2-oxo-1-propyl-3,4-dihydroquinolin-6-yl)methyl]naphthalene-1-sulfonamide]
change in vivo at 500 µM [1, 2]: -8.6%
change in vivo at 500 µM [1, 3]: 0%
change in vivo at 500 µM [1, 4]: 1%
change in vivo at 500 µM [1, 11]: -1.5%
change in vivo at 500 µM [1, 12]: 0%
change in vivo at 500 µM [1, 19]: -1.4%

melting point: 204 to 206 °C
SMILES: CCCn1c(=O)ccc2cc(CNS(=O)(=O)c3ccccc3)ccc21 [Compound 7.001, N-[(2-oxo-1-propyl-6-quinolyl)methyl]benzenesulfonamide]
change in vivo at 500 µM [1, 2]: -17.1%
change in vivo at 500 µM [1, 3]: -9.1%
change in vivo at 500 µM [1, 4]: -6.9%
change in vivo at 500 µM [1, 11]: -6.9%
change in vivo at 500 µM [1, 12]: -2.5%
change in vivo at 500 µM [1, 19]: -8.8%
